Here are results for one substance from patent US20250346643A1, “TROPOMYOSIN KINASE RECEPTOR (TRK) LIGANDS AS THERAPEUTICS TO SUPPORT LIVER REGENERATION” (Vanderbilt University, priority 2024, published 2025).

For one assay, the system named is CCND1. Description: Western blot of CCND1 in AML12 cell lysates. It counts as cell-based, mouse. As to conditions: AML12 (FIG. 9I-J). Here is the method:
Human HepG2 and mouse AML12 cells were grown in 6-well plates. Cells were treated with NTF3 (20 ng/ml) purchased from STEMCELL technologies, Vancouver, Canada (cat. 78074), R&D Systems, Minneapolis, MN (267-N3), Gibco, Waltham, MA (PHC7036) and/or Loxo-195 (5-10 nM) (Selleckchem, Houston, TX; S8636) in complete growth media without L-glutamine for 2 hours. Lyophilized NTF3 was solubilized with sterile filtered PBS supplemented with 0.1% BSA, aliquoted and stored at −80° C. until use. […] HepG2 and AML12 cells were collected on ice in PBS, centrifuged for 10 sec […] cell pellet homogenized in RIPA buffer containing inhibitors (Roche, Basel, Switzerland; complete Mini proteinase inhibitor, 1×HALT phosphatase inhibitors, Thermo Scientific, Waltham, MA; cat. 78428). Cell lysates were sonicated and centrifuged for 10 min at 18,800×g. Protein concentration of supernatants were determined by Direct Detect Spectrophotometer (MilliporeSigma, Burlington, MA).
For immunoblot analysis, 30-50 μg of protein diluted in LSD sample buffer (Invitrogen, Waltham, MA) were analyzed per SDS-PAGE (NuPAGE™, Invitrogen, Waltham, MA) using MOPS buffer or MES buffer (Invitrogen, Waltham, MA). […] Semi-quantitative band densitometry was performed using ImageJ software (version 1.53).

The next assay relates to CCND1 and PCNA. Nature of the assay: Immunoblotting of HDOs for CCND1 and PCNA. It counts as cell-based, human. The following applies: NTF3. The protocol:
Human ductal organoids. The normal human liver tissue was obtained through the Cooperative Human Tissue Network (CHTN) at Vanderbilt University Medical Center. The liver was cut into very small pieces in liver digestion medium (Gibco, Waltham, MA; 17703-034). The cell suspension was filtered through a 100-μm cell strainer. The flow through was then centrifuged for 2 min at 100 g, 4° C., and the cell pellet resuspended in ice-cold DMEM (Gibco, Waltham, MA; 11885-084, supplemented by 5% FBS) and centrifuged for 2 min at 300 g. The cell pellet was gently resuspended in Matrigel® (Corning, Corning, NY; 356231) and a […] dome plated in a 24-well plate. The plate was incubated for 10-15 min at 37° C. […]
Immunoblotting. […] Protein concentration of supernatants was determined by Direct Detect Spectrophotometer (MilliporeSigma, Burlington, MA). […] The protein concentration of supernatants was determined by a Direct Detect® spectrophotometer (MilliporeSigma, Burlington, MA). For immunoblot analysis, 10 to 50 μg of protein diluted in […] sample buffer (Invitrogen, Waltham, MA) were analyzed per SDS-polyacrylamide gel electrophoresis (NuPAGE™, Invitrogen, Waltham, MA) using Mops buffer or MES buffer (Invitrogen, Waltham, MA). […] Semi-quantitative band densitometry was performed using ImageJ software (version 1.53).

Turning to “NTF3: neurotrophin-3, recombinant protein; HSC-derived hepatocyte mitogen, ligand of TRKA, TRKB, TRKC”, the “CCND1 amounts, NTF3 from three different vendors” value in the assay with CCND1 is reported as “CCND1 amounts increased”. Further, the “CCND1 and PCNA (immunoblotting)” value in the assay with CCND1 and PCNA was “induced CCND1 and PCNA”.
